Measured values taken from patent US10499642B2, “Isoxazoline-substituted benzamides and analogues as insecticides” (SYNGENTA PARTICIPATIONS AG, priority 2015, dated 2019).
Where two headings read alike, the source gives them in different places.

Tests used:
Type in all cases: in vivo
Myzus persicae = Myzus persicae (green peach aphid) sunflower leaf disc test; details: foliar, 144 h
Description: Myzus persicae (Green Peach Aphid):
Sunflower leaf discs were placed on agar in a 24-well microtiter plate and sprayed with test solutions at an application rate of 200 ppm. After drying, the leaf discs were infested with an aphid population of mixed ages. After an incubation period of 6 days after treatment, samples were checked for mortality. The following compounds gave at least 80% mortality of Myzus persicae: […]

Tetranychus urticae = Tetranychus urticae (two-spotted spider mite) bean leaf disc test; details: foliar, 192 h
Description: Tetranychus urticae (Two-Spotted Spider Mite):
Bean leaf discs on agar in 24-well microtiter plates were sprayed with aqueous test solutions prepared from 10′000 ppm DMSO stock solutions. After drying the leaf discs were infested with a mite population of mixed ages. The samples were assessed for mortality on mixed population (mobile stages) 8 days after infestation.

Plutella xylostella = Plutella xylostella (diamond back moth) artificial diet test; details: 120 h, read-out: effect in at least one of the two categories (mortality or growth inhibition)
Outline: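 At a 200 ppm rate, test solutions were applied to artificial diet and allowed to dry before second-instar larvae were added. Five days later, larval mortality and growth inhibition were rated against untreated samples.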

Diabrotica Balteata = test: Diabrotica balteata (corn root worm) maize sprout test; details: 96 h, read-out: effect in at least one of the two categories (mortality or growth inhibition)
Outline: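 Scoring covered both mortality and growth inhibition relative to untreated controls, 4 days post-infestation. Test solutions at 200 ppm, diluted in water from 10′000 ppm DMSO stocks, were sprayed onto agar-held maize sprouts, which after drying received 6 to 10 L2 larvae each well.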

Thrips tabaci = Thrips tabaci (onion thrips) sunflower leaf disc test; details: foliar, 144 h
Description: Thrips tabaci (Onion Thrips):
Sunflower leaf discs were placed on agar in 24-well microtiter plates and sprayed with aqueous test solutions prepared from 10′000 ppm DMSO stock solutions. After drying the leaf discs were infested with a thrips population of mixed ages. The samples were assessed for mortality 6 days after infestation.

Spodoptera littoralis = Spodoptera littoralis (Egyptian cotton leaf worm) cotton leaf disc test; details: foliar, 72 h, read-out: control (at least one of mortality, anti-feedant effect, and growth inhibition)
Outline: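 Five first-instar larvae per disc were placed on dried, sprayed cotton leaf discs held on agar. Test solutions were aqueous, made from 10′000 ppm DMSO stocks. At day 3, control was counted when mortality, feeding deterrence or growth inhibition exceeded the untreated discs.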

CCC1=NOC(N(C=O)C(=O)c2ccc(C3=NO[C@@](c4cc(Cl)cc(Cl)c4)(C(F)(F)F)C3)cc2C)C1 (stereo partly drawn) [Compound A139]
≥ 80%: mortality at 200 ppm (Myzus persicae) | mortality at 200 ppm (Tetranychus urticae) | percent effect (mortality or growth inhibition) at 200 ppm (Plutella xylostella) | percent effect (mortality or growth inhibition) at 200 ppm (Diabrotica Balteata) | mortality at 200 ppm (Thrips tabaci) | percent control (mortality, anti-feedant effect or growth inhibition) at 200 ppm (Spodoptera littoralis)

COC1=NOC(NC(=O)c2ccc(C3=NO[C@@](c4cc(Cl)cc(Cl)c4)(C(F)(F)F)C3)cc2Cl)C1 (stereo partly drawn) [Compound A062]
≥ 80%: mortality at 200 ppm (Myzus persicae) | mortality at 200 ppm (Tetranychus urticae) | percent effect (mortality or growth inhibition) at 200 ppm (Plutella xylostella) | percent effect (mortality or growth inhibition) at 200 ppm (Diabrotica Balteata) | mortality at 200 ppm (Thrips tabaci) | percent control (mortality, anti-feedant effect or growth inhibition) at 200 ppm (Spodoptera littoralis)

COC1=NO[C@H](NC(=O)c2ccc(C3=NO[C@@](c4cc(Cl)c(F)c(Cl)c4)(C(F)(F)F)C3)cc2C)C1 (single isomer, unassigned) [Compound A150]
≥ 80%: mortality at 200 ppm (Myzus persicae) | mortality at 200 ppm (Tetranychus urticae) | percent effect (mortality or growth inhibition) at 200 ppm (Plutella xylostella) | percent effect (mortality or growth inhibition) at 200 ppm (Diabrotica Balteata) | mortality at 200 ppm (Thrips tabaci) | percent control (mortality, anti-feedant effect or growth inhibition) at 200 ppm (Spodoptera littoralis)

Cc1cc(C2=NO[C@@](c3cc(Cl)c(F)c(Cl)c3)(C(F)(F)F)C2)ccc1C(=O)NC1CC(Oc2ccc(Cl)cc2)=NO1 (stereo partly drawn) [Compound A108, N-[3-(4-chlorophenoxy)-4,5-dihydroisoxazol-5-yl]-4-[(5S)-5-(3,5-dichloro-4-fluoro-phenyl)-5-(trifluoromethyl)-4H-isoxazol-3-yl]-2-methyl-benzamide]
≥ 80%: mortality at 200 ppm (Myzus persicae) | mortality at 200 ppm (Tetranychus urticae) | percent effect (mortality or growth inhibition) at 200 ppm (Plutella xylostella) | percent effect (mortality or growth inhibition) at 200 ppm (Diabrotica Balteata) | mortality at 200 ppm (Thrips tabaci) | percent control (mortality, anti-feedant effect or growth inhibition) at 200 ppm (Spodoptera littoralis)

CC1=NOC(N(C=O)C(=O)c2ccc(C3=NO[C@@](c4cc(Cl)cc(Cl)c4)(C(F)(F)F)C3)cc2C)C1 (stereo partly drawn) [Compound A140]
≥ 80%: mortality at 200 ppm (Myzus persicae) | mortality at 200 ppm (Tetranychus urticae) | percent effect (mortality or growth inhibition) at 200 ppm (Plutella xylostella) | percent effect (mortality or growth inhibition) at 200 ppm (Diabrotica Balteata) | mortality at 200 ppm (Thrips tabaci) | percent control (mortality, anti-feedant effect or growth inhibition) at 200 ppm (Spodoptera littoralis)

Cc1cc(C2=NO[C@@](c3cc(Cl)c(Cl)c(Cl)c3)(C(F)(F)F)C2)ccc1C(=O)NC1CC(Cl)=NO1 (stereo partly drawn) [Compound A013, N-(3-chloro-4,5-dihydroisoxazol-5-yl)-2-methyl-4-[(5S)-5-(3,4,5-trichlorophenyl)-5-(trifluoromethyl)-4H-isoxazol-3-yl]benzamide]
≥ 80%: mortality at 200 ppm (Myzus persicae) | mortality at 200 ppm (Tetranychus urticae) | percent effect (mortality or growth inhibition) at 200 ppm (Plutella xylostella) | percent effect (mortality or growth inhibition) at 200 ppm (Diabrotica Balteata) | mortality at 200 ppm (Thrips tabaci) | percent control (mortality, anti-feedant effect or growth inhibition) at 200 ppm (Spodoptera littoralis)

CC1=NOC(NC(=O)c2ccc(C3=NO[C@@](c4cc(Cl)c(F)c(Cl)c4)(C(F)(F)F)C3)cc2Br)C1 (stereo partly drawn) [Compound A036, 2-bromo-4-[(5S)-5-(3,5-dichloro-4-fluoro-phenyl)-5-(trifluoromethyl)-4H-isoxazol-3-yl]-N-(3-methyl-4,5-dihydroisoxazol-5-yl)benzamide]
≥ 80%: mortality at 200 ppm (Myzus persicae) | mortality at 200 ppm (Tetranychus urticae) | percent effect (mortality or growth inhibition) at 200 ppm (Plutella xylostella) | percent effect (mortality or growth inhibition) at 200 ppm (Diabrotica Balteata) | mortality at 200 ppm (Thrips tabaci) | percent control (mortality, anti-feedant effect or growth inhibition) at 200 ppm (Spodoptera littoralis)

CCC1=NOC(NC(=O)c2ccc(C3=NO[C@@](c4cc(Cl)c(F)c(Cl)c4)(C(F)(F)F)C3)cc2C)C1 (stereo partly drawn) [Compound A026, 4-[(5S)-5-(3,5-dichloro-4-fluoro-phenyl)-5-(trifluoromethyl)-4H-isoxazol-3-yl]-N-(3-ethyl-4,5-dihydroisoxazol-5-yl)-2-methyl-benzamide]
≥ 80%: mortality at 200 ppm (Myzus persicae) | mortality at 200 ppm (Tetranychus urticae) | percent effect (mortality or growth inhibition) at 200 ppm (Plutella xylostella) | percent effect (mortality or growth inhibition) at 200 ppm (Diabrotica Balteata) | mortality at 200 ppm (Thrips tabaci) | percent control (mortality, anti-feedant effect or growth inhibition) at 200 ppm (Spodoptera littoralis)

Cc1cc(C2=NO[C@@](c3cc(Cl)cc(Cl)c3)(C(F)(F)F)C2)ccc1C(=O)N[C@@H]1CC(C(F)(F)F)=NO1 (single isomer, unassigned) [Compound A154]
≥ 80%: mortality at 200 ppm (Myzus persicae) | mortality at 200 ppm (Tetranychus urticae) | percent effect (mortality or growth inhibition) at 200 ppm (Plutella xylostella) | percent effect (mortality or growth inhibition) at 200 ppm (Diabrotica Balteata) | mortality at 200 ppm (Thrips tabaci) | percent control (mortality, anti-feedant effect or growth inhibition) at 200 ppm (Spodoptera littoralis)

Cc1cc(C2=NO[C@@](c3cc(Cl)c(F)c(Cl)c3)(C(F)(F)F)C2)ccc1C(=O)NC1CC(OCC(F)(F)F)=NO1 (stereo partly drawn) [Compound A103]
≥ 80%: mortality at 200 ppm (Myzus persicae) | mortality at 200 ppm (Tetranychus urticae) | percent effect (mortality or growth inhibition) at 200 ppm (Plutella xylostella) | percent effect (mortality or growth inhibition) at 200 ppm (Diabrotica Balteata) | mortality at 200 ppm (Thrips tabaci) | percent control (mortality, anti-feedant effect or growth inhibition) at 200 ppm (Spodoptera littoralis)

Cc1cc(C2=NO[C@@](c3cc(Cl)c(Cl)c(Cl)c3)(C(F)(F)F)C2)ccc1C(=O)NC1CC(OCc2ccncc2)=NO1 (stereo partly drawn) [Compound A124, 2-methyl-N-[3-(4-pyridylmethoxy)-4,5-dihydroisoxazol-5-yl]-4-[(5S)-5-(3,4,5-trichlorophenyl)-5-(trifluoromethyl)-4H-isoxazol-3-yl]benzamide]
≥ 80%: mortality at 200 ppm (Myzus persicae) | mortality at 200 ppm (Tetranychus urticae) | percent effect (mortality or growth inhibition) at 200 ppm (Plutella xylostella) | percent effect (mortality or growth inhibition) at 200 ppm (Diabrotica Balteata) | mortality at 200 ppm (Thrips tabaci) | percent control (mortality, anti-feedant effect or growth inhibition) at 200 ppm (Spodoptera littoralis)

Cc1cc(C2=NO[C@@](c3cccc(C(F)(F)F)c3)(C(F)(F)F)C2)ccc1C(=O)NC1CC(Br)=NO1 (stereo partly drawn) [Compound A058]
≥ 80%: mortality at 200 ppm (Myzus persicae; application rate 200 ppm, sunflower leaf discs, population of mixed ages, 6 days after treatment, read-out: mortality) | mortality at 200 ppm (Tetranychus urticae; application rate 200 ppm, bean leaf discs, mixed population (mobile stages), 8 days after infestation, read-out: mortality) | percent effect (mortality or growth inhibition) at 200 ppm (Plutella xylostella; application rate 200 ppm, artificial diet, L2 larvae, 5 days after infestation) | percent effect (mortality or growth inhibition) at 200 ppm (Diabrotica Balteata; application rate 200 ppm, maize sprouts, L2 larvae, 4 days after infestation) | mortality at 200 ppm (Thrips tabaci; application rate 200 ppm, sunflower leaf discs, population of mixed ages, 6 days after infestation, read-out: mortality) | percent control (mortality, anti-feedant effect or growth inhibition) at 200 ppm (Spodoptera littoralis; application rate 200 ppm, cotton leaf discs, L1 larvae, 3 days after infestation)

Cc1cc(C2=NO[C@@](c3cc(Cl)c(Cl)c(Cl)c3)(C(F)(F)F)C2)ccc1C(=O)NC1CC(C#N)=NO1 (stereo partly drawn) [Compound A145, N-(3-cyano-4,5-dihydroisoxazol-5-yl)-2-methyl-4-[(5S)-5-(3,4,5-trichlorophenyl)-5-(trifluoromethyl)-4H-isoxazol-3-yl]benzamide]
≥ 80%: mortality at 200 ppm (Myzus persicae) | mortality at 200 ppm (Tetranychus urticae) | percent effect (mortality or growth inhibition) at 200 ppm (Plutella xylostella) | percent effect (mortality or growth inhibition) at 200 ppm (Diabrotica Balteata) | mortality at 200 ppm (Thrips tabaci) | percent control (mortality, anti-feedant effect or growth inhibition) at 200 ppm (Spodoptera littoralis)

C=C(F)COC1=NOC(NC(=O)c2ccc(C3=NO[C@@](c4cc(Cl)c(F)c(Cl)c4)(C(F)(F)F)C3)cc2C)C1 (stereo partly drawn) [Compound A081]
≥ 80%: mortality at 200 ppm (Myzus persicae) | mortality at 200 ppm (Tetranychus urticae) | percent effect (mortality or growth inhibition) at 200 ppm (Plutella xylostella) | percent effect (mortality or growth inhibition) at 200 ppm (Diabrotica Balteata) | mortality at 200 ppm (Thrips tabaci) | percent control (mortality, anti-feedant effect or growth inhibition) at 200 ppm (Spodoptera littoralis)

Cc1cc(C2=NO[C@@](c3cc(Cl)c(F)c(Cl)c3)(C(F)(F)F)C2)ccc1C(=O)NC1CC(OCC[Si](C)(C)C)=NO1 (stereo partly drawn) [Compound A109]
≥ 80%: mortality at 200 ppm (Myzus persicae) | mortality at 200 ppm (Tetranychus urticae) | percent effect (mortality or growth inhibition) at 200 ppm (Plutella xylostella) | percent effect (mortality or growth inhibition) at 200 ppm (Diabrotica Balteata) | mortality at 200 ppm (Thrips tabaci) | percent control (mortality, anti-feedant effect or growth inhibition) at 200 ppm (Spodoptera littoralis)

CC1=NOC(N(C=O)C(=O)c2ccc(C3=NO[C@@](c4cc(Cl)c(F)c(Cl)c4)(C(F)(F)F)C3)cc2Br)C1 (stereo partly drawn) [Compound A034, 2-bromo-4-[(5S)-5-(3,5-dichloro-4-fluoro-phenyl)-5-(trifluoromethyl)-4H-isoxazol-3-yl]-N-formyl-N-(3-methyl-4,5-dihydroisoxazol-5-yl)benzamide]
≥ 80%: mortality at 200 ppm (Myzus persicae) | mortality at 200 ppm (Tetranychus urticae) | percent effect (mortality or growth inhibition) at 200 ppm (Plutella xylostella) | percent effect (mortality or growth inhibition) at 200 ppm (Diabrotica Balteata) | mortality at 200 ppm (Thrips tabaci) | percent control (mortality, anti-feedant effect or growth inhibition) at 200 ppm (Spodoptera littoralis)

CCCCOC1=NOC(NC(=O)c2ccc(C3=NO[C@@](c4cc(Cl)c(F)c(Cl)c4)(C(F)(F)F)C3)cc2C)C1 (stereo partly drawn) [Compound A104]
≥ 80%: mortality at 200 ppm (Myzus persicae) | mortality at 200 ppm (Tetranychus urticae) | percent effect (mortality or growth inhibition) at 200 ppm (Plutella xylostella) | percent effect (mortality or growth inhibition) at 200 ppm (Diabrotica Balteata) | mortality at 200 ppm (Thrips tabaci) | percent control (mortality, anti-feedant effect or growth inhibition) at 200 ppm (Spodoptera littoralis)
